The source of these data is patent US20250222146A1, “Radiopharmaceuticals Targeting Somatostatin Receptor 2 and Uses Thereof” (RayzeBio, Inc., priority 2023, published 2025).

Read-outs that look alike come from different tables or passages of the source. Numbered stars: 1 amine (or outer) side, 2 acyl side, 3 side chain; on linkers, the order of the positions; unused ones are H or OH. Square brackets hold non-standard residues; d marks the D form. Side chains are listed from the residue outwards. Peptide text beside a SMILES is read from it. * marks the point of attachment. DOTA(Lu)NH(CH2)6NHCOCH2 = O=C(CN1CCN2CCN3CCN(CC1)CC(=O)[O][Lu]([O]C(=O)C2)[O]C(=O)C3)NCCCCCCNC(=O)C*; DOTA(Lu) = O=C1CN2CCN3CCN(CC(=O)*)CCN(CC2)CC(=O)[O][Lu]([O]1)[O]C(=O)C3; Ala(piperidin-4-yl) = O=C([C@H](CC1CCN([*:3])CC1)N[*:1])[*:2]; dTrp(βS-Me) = C[C@@H](c1c[nH]c2ccccc12)[C@@H](N)C(=O)O; dTrp(5-OMe) = COc1ccc2[nH]cc(C[C@@H](N)C(=O)O)c2c1; Tyr(3-F) = N[C@@H](Cc1ccc(O)c(F)c1)C(=O)O; Dip = N[C@H](C(=O)O)C(c1ccccc1)c1ccccc1; Gly(cPent) = N[C@H](C(=O)O)C1CCCC1; mTyr = N[C@@H](Cc1cccc(O)c1)C(=O)O; 4Pal = N[C@@H](Cc1ccncc1)C(=O)O; NMehCys = CN[C@@H](CCS)C(=O)O; NMeK = CN[C@@H](CCCCN)C(=O)O; Inp = O=C(O)C1CCNCC1; Ahx = NCCCCCC(=O)O

In this test the target is SSTR2 (Homo sapiens, UniProt P30874). The experiment in a line: SSTR binding affinity by radioligand binding competition assay ([125I]-Tyr11-Somatostatin, membrane extracts).
Sequence of SSTR2 (P30874 whole entry): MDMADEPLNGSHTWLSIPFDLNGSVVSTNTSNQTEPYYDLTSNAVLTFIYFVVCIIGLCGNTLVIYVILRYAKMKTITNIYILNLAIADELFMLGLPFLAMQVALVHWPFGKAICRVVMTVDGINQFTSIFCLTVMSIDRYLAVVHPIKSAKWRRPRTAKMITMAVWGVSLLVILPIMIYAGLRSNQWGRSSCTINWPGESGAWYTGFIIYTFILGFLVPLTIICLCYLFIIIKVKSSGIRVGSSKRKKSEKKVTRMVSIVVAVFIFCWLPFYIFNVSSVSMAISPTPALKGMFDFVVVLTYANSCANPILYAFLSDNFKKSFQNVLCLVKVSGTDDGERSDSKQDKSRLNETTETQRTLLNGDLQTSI
Where [1] appears, read: SSTR2 Ki, radioligand competition, [125I]-Tyr11-Somatostatin 0.1 nM, membrane extracts, Ki from IC50 by Cheng Prusoff.
Where [2] appears, read: radioligand competition, [125I]-Tyr11-Somatostatin 0.1 nM, membrane extracts, Ki from IC50 by Cheng Prusoff, read-out: SSTR2 Ki.

A word on the Ki: it is a dissociation constant, usually derived from enzyme kinetics or from competition with a known ligand. Compound `C[C@@H](O)[C@@H]1NC(=O)[C@H](CCCCN)NC(=O)[C@H](Cc2c[nH]c3ccccc23)NC(=O)[C@H](Cc2ccc(O)cc2)NC(=O)[C@H](CCSCC(=O)NCCCCCCNC(=O)CN2CCN3CCN4CCN(CC2)CC(=O)[O][Lu]([O]C(=O)C3)[O]C(=O)C4)N(C)C(=O)[C@H](Cc2ccccc2)NC1=O` [RB-0005905] returned a Ki under setting [1] of less than 1 nM.

Compound `CC(C)[C@@H]1NC(=O)[C@H](CCCCN)NC(=O)[C@@H](Cc2c[nH]c3ccccc23)NC(=O)[C@H](Cc2ccc(O)cc2)NC(=O)[C@H](CCCCNC(=O)CCCCCNC(=O)CN2CCN3CCN4CCN(CC2)CC(=O)[O][Lu]([O]C(=O)C3)[O]C(=O)C4)N(C)C(=O)[C@H](Cc2ccccc2)NC1=O` [RB-0002670] (cyclo(F[NMeK]([Ahx-DOTA(Lu)])Y[dW]KV)) came in with a Ki under setting [1] of less than 1 nM.

Take `C[C@@H](O)[C@@H]1NC(=O)[C@H](CCCCN)NC(=O)[C@@H](Cc2c[nH]c3ccccc23)NC(=O)[C@H](Cc2ccc(O)cc2)NC(=O)[C@H](CNC(=O)CCCCCNC(=O)CN2CCN3CCN4CCN(CC2)CC(=O)[O][Lu]([O]C(=O)C3)[O]C(=O)C4)N(C)C(=O)[C@H](Cc2ccccc2)NC1=O` [RB-0005728]: the Ki under setting [2] was 3.33 to 10 nM.

Under setting [1], `C[C@H](O)[C@@H]1NC(=O)[C@H](CCCCN)NC(=O)[C@@H](Cc2c[nH]c3ccccc23)NC(=O)[C@H](Cc2ccc(O)cc2)NC(=O)[C@H](CCSCC(=O)NCCCCCCNC(=O)CN2CCN3CCN4CCN(CC2)CC(=O)[O][Lu]([O]C(=O)C3)[O]C(=O)C4)N(C)C(=O)[C@H](Cc2ccccc2)NC1=O` [RB-0003464] displayed a Ki of less than 1 nM.

In the case of `CC(=O)NCCCC[C@H]1C(=O)N[C@@H](Cc2ccc(O)cc2)C(=O)N[C@H](Cc2c[nH]c3ccccc23)C(=O)N[C@@H](CCCCN)C(=O)N[C@@H](C(C)C)C(=O)N[C@@H](Cc2ccccc2)C(=O)N1C` [RB-0002329] (HELM PEPTIDE1{F.[CN([C@@H](CCCCN[*:3])C(=O)[*:2])[*:1]].Y.[dW].K.V}|PEPTIDE2{[ac]}$PEPTIDE1,PEPTIDE2,2:R3-1:R2|PEPTIDE1,PEPTIDE1,1:R1-6:R2$$$V2.0), the inhibition constant (Ki) (read-out: SSTR2 Ki) was 1 to 3.33 nM.

In the case of `C[C@@H](O)[C@@H]1NC(=O)[C@H](CCCCN)NC(=O)[C@@H]([C@@H](C)c2c[nH]c3ccccc23)NC(=O)[C@H](Cc2ccc(O)cc2)NC(=O)[C@H](CCSCC(=O)NCCCCCCNC(=O)CN2CCN3CCN4CCN(CC2)CC(=O)[O][Lu]([O]C(=O)C3)[O]C(=O)C4)N(C)C(=O)[C@H](Cc2ccccc2)NC1=O` [RB-0003148] (cyclo(F[NMehCys](DOTA(Lu)NH(CH2)6NHCOCH2)Y[dTrp(βS-Me)]KT)), under setting [2], the inhibition constant (Ki) was less than 1 nM.

Turning to `C[C@@H]1NC(=O)[C@H](CC2CCNCC2)NC(=O)[C@@H]([C@@H](C)c2c[nH]c3ccccc23)NC(=O)[C@H](Cc2ccc(O)cc2)NC(=O)[C@H](CCCCNC(=O)CN2CCN3CCN4CCN(CC2)CC(=O)[O][Lu]([O]C(=O)C3)[O]C(=O)C4)N(C)C(=O)[C@H](Cc2ccccc2)NC1=O` [RB-0006319] (cyclo(AF[NMeK](DOTA(Lu))Y[dTrp(βS-Me)][Ala(piperidin-4-yl)])), the inhibitory constant (Ki) under setting [2] was less than 1 nM.

For `C[C@H](c1ccccc1)[C@@H]1NC(=O)[C@H]([C@@H](C)O)NC(=O)[C@H](CCCCN)NC(=O)[C@@H]([C@@H](C)c2c[nH]c3ccccc23)NC(=O)[C@H](Cc2ccncc2)NC(=O)[C@H](CCSCC(=O)NCCCCCCNC(=O)CN2CCN(CC(=O)O)CCN(CC(=O)O)CCN(CC(=O)O)CC2)N(C)C1=O` [RB-0003408], the Ki (read-out: SSTR2 Ki) lay in the range of 1 to 3.33 nM.

For the compound `COc1ccc2[nH]cc(C[C@H]3NC(=O)[C@H](Cc4ccc(O)cc4)NC(=O)[C@H](CCSCC(=O)NCCCCCCNC(=O)CN4CCN5CCN6CCN(CC4)CC(=O)[O][Lu]([O]C(=O)C5)[O]C(=O)C6)N(C)C(=O)[C@H](Cc4ccccc4)NC(=O)[C@H]([C@@H](C)O)NC(=O)[C@H](CC4CCNCC4)NC3=O)c2c1` [RB-0006076] (cyclo(F[NMehCys](DOTA(Lu)NH(CH2)6NHCOCH2)Y[dTrp(5-OMe)][Ala(piperidin-4-yl)]T)), the “SSTR2 Ki” value (radioligand competition, [125I]-Tyr11-Somatostatin 0.1 nM, membrane extracts, Ki from IC50 by Cheng Prusoff) is on record as “FALSE”.

For `C[C@@H](O)[C@@H]1NC(=O)[C@H](CC2CCNCC2)NC(=O)[C@@H](Cc2c[nH]c3ccccc23)NC(=O)[C@H](Cc2ccc(O)cc2)NC(=O)[C@H](CCSCC(=O)NCCCCCCNC(=O)CN2CCN3CCN4CCN(CC2)CC(=O)[O][Lu]([O]C(=O)C3)[O]C(=O)C4)N(C)C(=O)[C@H](Cc2ccccc2)NC1=O` [RB-0004864] (cyclo(F[NMehCys](DOTA(Lu)NH(CH2)6NHCOCH2)Y[dW][Ala(piperidin-4-yl)]T)), under setting [2], the Ki was in the range of 1 to 3.33 nM.

With `C[C@@H](O)[C@@H]1NC(=O)[C@H](CCCCN)NC(=O)[C@@H](Cc2c[nH]c3ccccc23)NC(=O)[C@H](Cc2ccc(O)cc2)NC(=O)[C@H](CCSCC(=O)NCCOCCOCCNC(=O)CN2CCN3CCN4CCN(CC2)CC(=O)[O][Lu]([O]C(=O)C3)[O]C(=O)C4)N(C)C(=O)[C@H](Cc2ccccc2)NC1=O` [RB-0005272], the inhibition constant Ki under setting [2] is less than 1 nM.

For the compound `C[C@@H](O)[C@@H]1NC(=O)[C@H](CC2CCNCC2)NC(=O)[C@@H]([C@@H](C)c2c[nH]c3ccccc23)NC(=O)[C@H](Cc2ccc(O)cc2)NC(=O)[C@H](CCCCNC(=O)CN2CCN3CCN4CCN(CC2)CC(=O)[O][Lu]([O]C(=O)C3)[O]C(=O)C4)N(C)C(=O)[C@H](CO)NC1=O` [RB-0006166] (cyclo([NMeK](DOTA(Lu))Y[dTrp(βS-Me)][Ala(piperidin-4-yl)]TS)), the Ki under setting [2] lay in the range of 33.3 to 100 nM.

As to `C[C@@H](O)[C@@H]1NC(=O)[C@H](CCCCN)NC(=O)[C@@H](Cc2c[nH]c3ccccc23)NC(=O)[C@H](Cc2ccc(O)cc2)NC(=O)[C@H](CCSCC(=O)NCCCCCCNC(=O)CN2CCN3CCN4CCN(CC2)CC(=O)[O][Lu]([O]C(=O)C3)[O]C(=O)C4)N(C)C(=O)[C@H](Cc2ccncc2)NC1=O` [RB-0003277] (cyclo([4Pal][NMehCys](DOTA(Lu)NH(CH2)6NHCOCH2)Y[dW]KT)), the Ki under setting [2] fell in the range of 1 to 3.33 nM.

Turning to `C[C@@H](O)[C@@H]1NC(=O)[C@H](CC2CCNCC2)NC(=O)[C@@H]([C@@H](C)c2c[nH]c3ccccc23)NC(=O)[C@H](Cc2ccc(O)cc2)NC(=O)[C@H](CCCCNC(=O)C2CCN(C(=O)CN3CCN4CCN5CCN(CC3)CC(=O)[O][Lu]([O]C(=O)C5)[O]C(=O)C4)CC2)N(C)C(=O)[C@H](Cc2ccccc2)NC1=O` [RB-0006452] (cyclo(F[NMeK]([Inp-DOTA(Lu)])Y[dTrp(βS-Me)][Ala(piperidin-4-yl)]T)), under setting [2], the Ki was 1 to 3.33 nM.

On to `COc1ccc(C[C@@H]2NC(=O)[C@H](CCCCNC(=O)CN3CCN4CCN5CCN(CC3)CC(=O)[O][Lu]([O]C(=O)C4)[O]C(=O)C5)N(C)C(=O)[C@H](Cc3ccccc3)NC(=O)[C@H]([C@@H](C)O)NC(=O)[C@H](CC3CCNCC3)NC(=O)[C@@H]([C@@H](C)c3c[nH]c4ccccc34)NC2=O)cc1` [RB-0006139] (cyclo(F[NMeK](DOTA(Lu))Y(Me)[dTrp(βS-Me)][Ala(piperidin-4-yl)]T)), for which the Ki under setting [2] was 33.3 to 100 nM.

As for `C[C@@H](O)[C@@H]1NC(=O)[C@H](CCCCN)NC(=O)[C@@H](Cc2c[nH]c3ccccc23)NC(=O)[C@H](Cc2ccc(O)cc2)NC(=O)[C@H](CCCCCNC(=O)CN2CCN3CCN4CCN(CC2)CC(=O)[O][Lu]([O]C(=O)C3)[O]C(=O)C4)N(C)C(=O)[C@H](Cc2ccccc2)NC1=O` [RB-0004536], the Ki under setting [2] is less than 1 nM.

Consider `C[C@@H](O)[C@@H]1NC(=O)[C@H](CCCCN)NC(=O)[C@@H](Cc2c[nH]c3ccccc23)NC(=O)[C@H](Cc2ccc(O)c(F)c2)NC(=O)[C@H](CCSCC(=O)NCCCCCCNC(=O)CN2CCN3CCN4CCN(CC2)CC(=O)[O][Lu]([O]C(=O)C3)[O]C(=O)C4)N(C)C(=O)[C@H](Cc2ccccc2)NC1=O` [RB-0003280] (cyclo(F[NMehCys](DOTA(Lu)NH(CH2)6NHCOCH2)[Tyr(3-F)][dW]KT)), for which the Ki under setting [2] was less than 1 nM.

In the case of `C[C@@H](O)[C@@H]1NC(=O)[C@H](CCCCN)NC(=O)[C@@H]([C@@H](C)c2c[nH]c3ccccc23)NC(=O)[C@H](Cc2ccncc2)NC(=O)[C@H](CCSCC(=O)NCCCCCCNC(=O)CN2CCN(CC(=O)O)CCN(CC(=O)O)CCN(CC(=O)O)CC2)N(C)C(=O)[C@H]([C@@H](C)c2ccccc2)NC1=O` [RB-0003409], the Ki (read-out: SSTR2 Ki) is less than 1 nM.

Consider `CN1C(=O)[C@H](Cc2ccccc2)NC(=O)[C@H](C2CCCC2)NC(=O)[C@H](CCCCN)NC(=O)[C@@H](Cc2c[nH]c3ccccc23)NC(=O)[C@H](Cc2ccc(O)cc2)NC(=O)[C@@H]1CCSCC(=O)NCCCCCCNC(=O)CN1CCN2CCN3CCN(CC1)CC(=O)[O][Lu]([O]C(=O)C2)[O]C(=O)C3` [RB-0004623] (cyclo(F[NMehCys](DOTA(Lu)NH(CH2)6NHCOCH2)Y[dW]K[Gly(cPent)])), for which, under setting [2], the Ki was less than 1 nM.

Turning to `C[C@@H](O)[C@@H]1NC(=O)[C@H](CC2CCNCC2)NC(=O)[C@@H]([C@@H](C)c2c[nH]c3ccccc23)NC(=O)[C@H](Cc2ccc(O)cc2)NC(=O)[C@H](CCCCNC(=O)CN2CCN3CCN4CCN(CC2)CC(=O)[O][Lu]([O]C(=O)C3)[O]C(=O)C4)N(C)C(=O)[C@H](Cc2cccc(O)c2)NC1=O` [RB-0005985] (cyclo([NMeK](DOTA(Lu))Y[dTrp(βS-Me)][Ala(piperidin-4-yl)]T[mTyr])), under setting [2], the inhibition constant Ki is less than 1 nM.

Regarding `C[C@@H](O)[C@@H]1NC(=O)[C@H](CCCCN)NC(=O)[C@@H](Cc2c[nH]c3ccccc23)NC(=O)[C@H](Cc2ccc(O)cc2)NC(=O)[C@H](CNC(=O)[C@H](CC(=O)O)NC(=O)CCCCCNC(=O)CN2CCN3CCN4CCN(CC2)CC(=O)[O][Lu]([O]C(=O)C3)[O]C(=O)C4)N(C)C(=O)[C@H](Cc2ccccc2)NC1=O` [RB-0005730], under setting [2], the inhibition constant (Ki) is less than 1 nM.

Take `C[C@@H]1NC(=O)[C@H]([C@@H](C)O)NC(=O)[C@H](CC2CCNCC2)NC(=O)[C@@H](Cc2c[nH]c3ccccc23)NC(=O)[C@H](C(c2ccccc2)c2ccccc2)NC(=O)[C@H](CCSCC(=O)NCCCCCCNC(=O)CN2CCN3CCN4CCN(CC2)CC(=O)[O][Lu]([O]C(=O)C3)[O]C(=O)C4)N(C)C1=O` [RB-0005809] (cyclo(A[NMehCys](DOTA(Lu)NH(CH2)6NHCOCH2)[Dip][dW][Ala(piperidin-4-yl)]T)): the inhibition constant Ki under setting [2] was 1 to 3.33 nM.
